Results published in patent US11753484B2, “Cellulose ether-lactam hybrid polymers, compositions, and methods for preparing and using the hybrid polymers” (HERCULES LLC, priority 2017, dated 2023).

Key:
[1] = Dissolution of Efavirenz spray dried dispersions in FaSSIF media (Pion μDiss Profiler); format: physicochemical
Method: (§1) The active pharmaceutical ingredient (API) and polymer were mixed in a 30:70 ratio and spray-dried into a spray dried dispersion (SDD). The following are the solution preparation and spray drying process information. Solution preparation: Efavirenz and polymers were dissolved in a 2:1 (w/w) mixture of acetone:methanol solution at a total 3% solid loading. Dissolution of all components was visually confirmed before spray drying. Spray drying: Spray drying was performed on a GEA-Niro SD Micro spray dryer. All dispersions were spray dried targeting an inlet gas temperature of 85° C., 25 kg/hour process gas flow, 0.5 barr atomization gas pressure, 1.5 kg/hour atomizing gas flow, and an adjustable liquid feed rate targeting an outlet gas temperature of 55° C. The feed solution was held at ambient conditions. Dissolution: The dissolution tests were conducted using Pion μDiss Profiler with in situ Fiber Optic UV-Vis Monitoring. 66.7 mg spray dried dispersion (SDD) was weighed and tested in the dissolution, with 30% drug loading level (20 mg API). The controlled reference used in dissolution testing is pure API Efavirenz (20 mg). The quantity of dissolution media is 20 mL. The API concentrations were monitored for 2 hours. For each sample, triplicate measurements were taken and the average results were reported. Fasted Simulated Intestine Fluid (FaSSIF), as well as pH 6.8 phosphate buffer, were used to perform the dissolution. FaSSIF is virtually the same as the small intestinal juices present when one hasn't eaten any food, and contain bile salts and phospholipids, physiologically relevant surfactants which are missing from typical dissolution media. The use of FaSSIF media can help to better correlate the in vitro dissolution property and the in vivo response (IVIVC), so as to further understand the API performance in actual human body. Meanwhile, pH 6.8 phosphate buffer medium was also used in the study, as it was more typically used in formulation development/screening process, pH 6.8 phosphate buffer medium is not as indicated as FaSSIF medium in terms of establishing the IVIVC. […]

[2] = Dissolution of Efavirenz spray dried dispersions in pH 6.8 phosphate buffer media (Pion μDiss Profiler); format: physicochemical
Method: as §1

[3] = Glass transition temperature (Tg) by differential scanning calorimetry; format: physicochemical; conditions: regular DSC, heat-cool-heat, 10° C./minute, second heating cycle
Method: Differential Scanning Calorimetry (DSC): Glass transition temperature Tg is an important indicator of API physical stability against crystallization through storage. The higher Tg, the better physical stability. Generally speaking, if the Tg is equal to or higher than storage temperature+50° C., then the product is expected to be very stable throughout the entire shelf life. If the Tg is between storage temperature and temperature+50° C., then some stability issue may occur.
The glass transition temperature (Tg) measurement were conducted using TA instrument, Q2000. For pure ingredients, regular DSC set up was used. A heat-cool-heat cycle with a heating rate of 10° C./minutes was implemented. The first heating cycle is used to standardize sample by erasing its thermal history, and the Tg from second heating cycle is reported. For SDD, modulated DSC set up was used. An average heating rate of 2° C./minute with modulation amplitude of 1° per 40 seconds was implemented.
The measurement results are summarized below in the Table. […] Stable SDDs are expected from this indicator.

[4] = description of the API; cited from earlier work
[5] = BCS-2 type drug; cited from earlier work
[6] = cited from earlier work
[7] = 20 mg API in 20 mL, 30% drug load SDD (API:polymer 30:70), 2 hours, mean of triplicate
[8] = Efavirenz concentration at 120 min, SDD 30:70

O=C1Nc2ccc(Cl)cc2[C@@](C#CC2CC2)(C(F)(F)F)O1 [Efavirenz]
AUC [1, 7]: 18702.91 µg·min/mL | relAUC ([1]; AUC of SDD vs AUC of neat API): 1.0 | C120 [1, 8]: 166.7892 µg/mL | AUC [2, 7]: 960.92 µg·min/mL | relAUC ([2]; AUC of SDD vs AUC of neat API): 1.0 | C120 [2, 8]: 9.924 µg/mL | Tg, Pure ingredient [3]: 34.9 °C | glass transition temperature [4]: around 35 °C | aqueous solubility [5]: poor | partition coefficient in an octanol-water system (logP) [6]: 4.7
